Experiments:
HFL1 = assay: Intrinsic toxicity, MTT survival; format: cell-based; details: Homo sapiens, 48 hours, ± standard error
Description: (§1) Percent survival determined by MTT assay calculated relative to cells treated with equal volume DMSO vehicle and represent the mean±SEM from 2-4 separate studies, each study performed in triplicate wells.
The intrinsic in vitro toxicities of identified compounds were evaluated to determine their potential therapeutic window. This was assessed in a noncancerous cell line (HFL1) and the human prostate cancer cell lines DU145 and the MDR sub-line DU145TxR. The potential toxicity of the compounds were assessed at concentrations that centered around 25 μM.

DU145-TxR = assay: Re-sensitization to Paclitaxel or Doxorubicin at 25 μM compound (MTT); format: cell-based, human; details: 48 hours
Description: FIGS. 3A-3B are plots that show an example of the re-sensitization of a multidrug resistant prostate cancer cell line to two different chemotherapeutics using the prostate cancer derived cell line, DU145 and the multidrug-resistant variant, DU145-TxR. […] Cell viability was measured by the MTT (3-(4,5-dimethylthiazol-2-yl)-2,5-diphenyl tetrazolium bromide assay conducted as described previously. After 48 hours of treatment with Paclitaxel or Doxorubicin alone or in the presence of 25 μM compound 29, 34, or 45 media was removed and cells were washed twice with phosphate buffered saline (PBS) and MTT assay was conducted 24 hours later. Data expressed as mean±SEM.

A2780 = assay: Hyper-sensitization of ovarian cancer cells to doxorubicin; format: cell-based; details: not chemotherapy resistant A2780
Excerpt: Hyper-sensitization of cancers to chemotherapeutics. […] The sensitivity of normal, not chemotherapy resistant A2780 ovarian cancer cell lines to doxorubicin was increased by several orders of magnitude in these assays.

[1] = molecular target: T1, Cysteineless Mouse MDR3 P-glycoprotein (Mus musculus, UniProt P21447, C1070A/C1121A/C1223A/C133A/C427A/C638A/C669A/C713A/C952A); assay: ATP hydrolysis by purified P-glycoprotein, basal and verapamil-stimulated; format: biochemical
T1 construct: made in house; host or cells: Pichia pastoris
Outline: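 Cysteine-less mouse MDR3 P-gp (all Cys→Ala), expressed in Pichia pastoris and stabilised with phosphatidyl choline, was pre-incubated with compounds at 37 °C. ATP hydrolysis (2 mM ATP final, 20 min) measured via pyruvate kinase/lactate dehydrogenase-coupled NADH oxidation, with and without verapamil stimulation.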

[2] = molecular target: Normal Human MDR1 P-glycoprotein (Homo sapiens, UniProt P08183); assay: ATP hydrolysis by human P-gp assembled into membrane nanodiscs; format: biochemical; details: human MDR1 P-gp in nanodiscs
Excerpt: To assess whether the observed discrepancies of compounds stimulating basal P-gp ATPase activity but not being transport substrates of the human pump in the cell culture assessments were due to the fact that these biochemical assays used a cysteineless variant of the mouse MDR3 P-glycoprotein, the experiments were repeated using normal human MDR1 P-gp. In order to stabilize the human protein for the activity assays, the protein was assembled into membrane nanodiscs as described herein.

DU145TXR [3] = assay: Resensitization of DU145TXR to paclitaxel by 29 variants (MTT cell viability); format: cell-based, human; details: for Fold vs PTX ÷ 29: compared to parental compound 29
Excerpt: The Group 1 ChemGen/docking routine produced variants of P-gp inhibitor 29 resensitize a multidrug resistant, P-gp overexpressing prostate cancer cell line to paclitaxel. The mitochondrial reduction potential of cells is often used as an indicator for cell viability using MTT assays^40-42. Using these assays it was observed that the five Group 1 derivatives of 29 predicted through the ChemGen/docking routine and synthesized here, 216, 227, 231, 541 and 551, re-sensitized the P-gp overexpressing prostate cancer cell line, DU145TXR^33, to the chemotherapeutic, paclitaxel (FIG. 9, showing results of assays at concentrations of 3 μM, 5 μM, 7 μM, and 10 μM).
Cytotoxicity of the chemotherapeutic, paclitaxel (PTX) to P-gp overexpressing prostate cancer cells, DU145TXR, was determined in the absence and presence of the ChemGen designed 29-variants, 216, 227, 231, 541 and 551. For each experimental compound IC50 values of PTX alone or in the presence of inhibitors, fold improvement of PTX sensitivity in the presence of inhibitor, and fold improvement of PTX sensitivity by variants compared to parental compound 29 are given.

DU145TXR [4] = assay: Intrinsic toxicity, MTT survival; format: cell-based, human; details: Homo sapiens; intrinsic toxicity, 48 hours, MTT; ± standard error
Description: as §1
(§2) The intrinsic in vitro toxicities of identified compounds were evaluated to determine their potential therapeutic window. This was assessed in a noncancerous cell line (HFL1) and the human prostate cancer cell lines DU145 and the MDR sub-line DU145TxR.

DU145 = assay: Intrinsic toxicity, MTT survival; format: cell-based; details: Homo sapiens, DU-145, 48 hours, ± standard error
Description: as §1, §2

T1 sequence (P21447 whole entry C133A/C427A/C638A/C669A/C713A/C952A/C1070A/C1121A/C1223A): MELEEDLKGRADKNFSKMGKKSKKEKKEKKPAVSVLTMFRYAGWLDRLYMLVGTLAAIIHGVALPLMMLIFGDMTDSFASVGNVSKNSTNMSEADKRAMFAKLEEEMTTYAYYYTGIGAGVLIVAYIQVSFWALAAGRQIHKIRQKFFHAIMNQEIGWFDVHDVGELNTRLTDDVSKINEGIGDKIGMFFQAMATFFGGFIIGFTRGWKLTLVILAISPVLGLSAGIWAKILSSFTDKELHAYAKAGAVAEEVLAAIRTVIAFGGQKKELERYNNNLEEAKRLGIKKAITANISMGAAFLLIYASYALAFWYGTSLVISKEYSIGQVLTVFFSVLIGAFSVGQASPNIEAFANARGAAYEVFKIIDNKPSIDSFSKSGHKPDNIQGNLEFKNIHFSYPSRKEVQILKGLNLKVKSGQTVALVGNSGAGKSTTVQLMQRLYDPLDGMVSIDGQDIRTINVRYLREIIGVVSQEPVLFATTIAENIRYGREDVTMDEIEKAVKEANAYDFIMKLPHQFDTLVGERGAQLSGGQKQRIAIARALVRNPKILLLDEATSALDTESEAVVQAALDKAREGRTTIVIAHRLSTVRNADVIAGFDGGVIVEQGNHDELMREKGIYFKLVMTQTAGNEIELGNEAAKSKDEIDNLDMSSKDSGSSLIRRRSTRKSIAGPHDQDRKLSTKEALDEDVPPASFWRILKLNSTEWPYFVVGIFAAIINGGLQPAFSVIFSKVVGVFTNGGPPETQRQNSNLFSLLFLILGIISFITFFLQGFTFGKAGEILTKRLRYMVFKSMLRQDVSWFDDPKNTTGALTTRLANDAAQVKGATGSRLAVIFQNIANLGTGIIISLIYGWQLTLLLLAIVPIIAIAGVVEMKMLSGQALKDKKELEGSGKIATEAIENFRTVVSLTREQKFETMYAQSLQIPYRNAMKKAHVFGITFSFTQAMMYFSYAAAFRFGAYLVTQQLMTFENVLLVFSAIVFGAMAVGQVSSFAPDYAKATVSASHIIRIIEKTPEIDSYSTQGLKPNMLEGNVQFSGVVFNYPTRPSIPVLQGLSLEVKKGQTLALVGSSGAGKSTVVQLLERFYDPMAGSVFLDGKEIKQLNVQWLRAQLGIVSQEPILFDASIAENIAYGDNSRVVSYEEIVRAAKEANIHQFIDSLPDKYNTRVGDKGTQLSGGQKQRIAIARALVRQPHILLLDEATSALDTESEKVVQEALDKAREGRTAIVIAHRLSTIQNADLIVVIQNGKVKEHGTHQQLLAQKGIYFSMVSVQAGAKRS
Chain of Normal Human MDR1 P-glycoprotein (P08183 whole entry): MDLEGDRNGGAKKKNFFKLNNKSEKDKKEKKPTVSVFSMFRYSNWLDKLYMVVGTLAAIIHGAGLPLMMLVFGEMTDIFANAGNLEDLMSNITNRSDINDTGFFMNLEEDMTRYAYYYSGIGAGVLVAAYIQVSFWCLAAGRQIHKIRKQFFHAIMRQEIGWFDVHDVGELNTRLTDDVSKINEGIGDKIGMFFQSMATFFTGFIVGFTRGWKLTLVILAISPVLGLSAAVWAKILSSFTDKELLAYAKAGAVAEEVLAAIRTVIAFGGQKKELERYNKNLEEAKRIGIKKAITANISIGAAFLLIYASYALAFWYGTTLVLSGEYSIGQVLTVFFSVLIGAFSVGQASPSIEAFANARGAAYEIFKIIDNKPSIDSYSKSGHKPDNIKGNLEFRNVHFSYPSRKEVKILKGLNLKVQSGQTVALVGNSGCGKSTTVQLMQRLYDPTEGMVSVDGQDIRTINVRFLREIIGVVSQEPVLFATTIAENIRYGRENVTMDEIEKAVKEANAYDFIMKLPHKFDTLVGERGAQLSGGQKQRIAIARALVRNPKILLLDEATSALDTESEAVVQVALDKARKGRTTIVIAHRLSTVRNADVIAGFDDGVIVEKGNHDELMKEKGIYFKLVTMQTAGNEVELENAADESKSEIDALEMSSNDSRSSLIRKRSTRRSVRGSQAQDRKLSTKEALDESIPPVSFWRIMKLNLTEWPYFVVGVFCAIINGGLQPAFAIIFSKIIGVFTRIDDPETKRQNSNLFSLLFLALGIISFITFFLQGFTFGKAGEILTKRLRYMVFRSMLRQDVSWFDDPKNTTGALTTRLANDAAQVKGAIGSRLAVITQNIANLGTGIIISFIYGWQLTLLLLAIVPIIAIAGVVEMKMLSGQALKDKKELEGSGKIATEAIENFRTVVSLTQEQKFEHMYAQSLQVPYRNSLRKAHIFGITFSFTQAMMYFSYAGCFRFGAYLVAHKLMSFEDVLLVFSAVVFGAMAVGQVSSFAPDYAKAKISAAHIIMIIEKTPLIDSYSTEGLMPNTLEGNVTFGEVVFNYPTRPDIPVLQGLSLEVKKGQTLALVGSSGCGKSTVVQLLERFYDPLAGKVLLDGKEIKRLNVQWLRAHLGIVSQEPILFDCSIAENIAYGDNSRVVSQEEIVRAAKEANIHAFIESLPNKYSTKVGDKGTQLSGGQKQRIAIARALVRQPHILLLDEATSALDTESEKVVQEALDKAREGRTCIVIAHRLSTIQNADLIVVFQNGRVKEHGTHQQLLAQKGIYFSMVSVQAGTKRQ

Effect on stimulated ATPase ([1]; in the presence of verapamil): significantly inhibit | Stimulated ATPase (% of DMSO) ([1]; in the presence of verapamil, ± standard deviation): 49 ± 2 % of DMSO | Basal ATPase (% of DMSO) ([1]; without added transport substrate, ± standard deviation): 95 ± 11 % of DMSO | Basal ATPase (% of DMSO) ([2]; basal): 88 ± 9 % of DMSO | Stimulated ATPase (% of DMSO) ([2]; stimulated): 62 ± 3 % of DMSO
Compound: Cc1cc(C)c(-c2cc(NC(=O)CSc3n[nH]c(C4CC4)n3)n(-c3ccccc3)n2)cc1C [SMU-29, 2-[(5-cyclopropyl-1H-1,2,4-triazol-3-yl)sulfanyl]-N-[2-phenyl-5-(2,4,5-trimethylphenyl)pyrazol-3-yl]acetamide]
IC50 (HFL1): 48.2 ± 0.01 µM | Chemotherapeutic sensitivity of MDR cell line (Paclitaxel or Doxorubicin) (DU145-TxR): restores chemotherapeutic sensitivity | Sensitivity to doxorubicin (A2780): hyper-sensitized | Fold vs PTX ÷ 29 (DU145TXR [3]; 3 μM inhibitor): 1 Fold | Fold vs PTX (DU145TXR [3]; 3 μM inhibitor, fold improvement of PTX sensitivity vs PTX alone): 3 Fold | Fold vs PTX ÷ 29 (DU145TXR [3]; 5 μM inhibitor): 1 Fold | Fold vs PTX (DU145TXR [3]; 5 μM inhibitor, vs PTX alone): 11 Fold | Fold vs PTX ÷ 29 (DU145TXR [3]; 7 μM inhibitor): 1 Fold | Fold vs PTX (DU145TXR [3]; 7 μM inhibitor, vs PTX alone): 36 Fold | Fold vs PTX ÷ 29 (DU145TXR [3]; 10 μM inhibitor): 1 Fold | Fold vs PTX (DU145TXR [3]; 10 μM inhibitor, vs PTX alone): 101 Fold | IC50 (DU145TXR [4]): 37.9 ± 0.02 µM | IC50 (DU145): 33.4 ± 0.01 µM
